“Also recorded” adds a separate entry of the source.
System: antibody-forming cells (AFC) in the spleen
Experiment: Influence of compound on humoral immune response to sheep erythrocytes, C57B1/6 female mice (AFC in spleen, hemagglutinins)
Assay type: in vivo
Conditions: for Amount of antibody-forming cells per 10^6 spleen cells / Amount of antibody-forming cells per spleen / Effect on relative amount of AFC (per 10^6 spleen cells) / Effect on total AFC amount (per spleen) / Effect on hemagglutinin titers / Spleen index / Amount of hemagglutinins: i.v.; for Amount of antibody-forming cells per 10^6 spleen cells / Amount of antibody-forming cells per spleen / Effect on relative amount of AFC (per 10^6 spleen cells) / Effect on total AFC amount (per spleen): 5th day; for Amount of antibody-forming cells per 10^6 spleen cells / Amount of antibody-forming cells per spleen: M ± SEM; for Effect on relative amount of AFC (per 10^6 spleen cells) / Effect on total AFC amount (per spleen) / Effect on hemagglutinin titers: vs control; for Spleen index: with SRBC i.p.; for Amount of hemagglutinins: serum; for Immunogenic activity: 45.5 and 91 μg/mouse
Description: The increase was calculated as compared with the amount of cells in the animals immunised only with sheep erythrocytes.
0.15 ml of compound 10 was administered intravenously to 6 mice females of CS7B1/6 line (weight 18-22 g) in doses of 45.5, 91 and 136.5 μg of compound 10 per capita for each testing group according to the dose. Simultaneously, a suspension of 5·10^7 sheep erythrocytes was injected intraperitoneally (0.2 ml per capita). Mice in the control group were injected intravenously with equal volume of saline. The effects of compound 10 on humoral immune response were analyzed both by counting the quantity of AFC in the spleen according to Cunningham (per 10^6 spleen cells and per spleen) and estimating the titers of hemagglutining antibodies in serum of the animals (Cunningham A. J., Nature, 1965, Vol.207, No 5001. P.1106-1107), while the titers of hemagglutinating antibodies were evaluated according to litterature (Evans J. et al., Cell, 1974; Vol 3., p.153-158, Feizi T., Menger E., Transfusion, 1970, Vol. 10, p.33-35,).
(§1) 0.15 ml of compound 11 was administered intravenously to 6 female mice of the C57B1/6 line (weight 18-22 g) in doses of 45.5, 91 and 136.5 μg of compound 11 per capita for each testing group according to the dose. Simultaneously, a suspension of 5·10^7 sheep erytrocytes was injected intraperitoneally (0.2 ml per capita). Mice in the control group were injected intravenously with an equal volume of saline. The effects of compound 11 on humoral immune response was analysed both by counting the quantity of AFC in the spleen according to Cunningham (per 10^6 spleen cells and per spleen) and estimating the titers of hemagglutining antibodies in serum of the animals.
as §1, with “12” for “11”, “erythrocytes” for “erytrocytes”, “analyzed” for “analysed”
as §1, with “compound 8” for “compound 11”, “sheep erythrocytes” for “sheep erytrocytes”, “Mice of” for “Mice in”, “response were analyzed” for “response was analysed”
0.15 ml of compound 3 was administered intravenously to 6 female mice of the C57B1/6 line (weight 18-22 g) in doses of 45.5, 91 and 136.5 μg of compound 3 per capita for each testing group according to the dose. Simultaneously, a suspension of 5·10^7 sheep erytrocytes was injected intraperitoneally (0.2 ml per capita). Mice of the control group were injected intravenously with equal volume of saline.

CC/C=C\C/C=C\C/C=C\C/C=C\C/C=C\C/C=C\CCC(=O)N[C@H](C(=O)O)[C@@H](C)OP(=O)(O)O [Compound 11, N-(cis-4,7,10,13,16,19-docosahexaenoyl)-O-phospho-L-threonine]
Amount of antibody-forming cells per 10^6 spleen cells (45.5 μg/mouse): 676.8±77.1 cells per 10^6 spleen cells
Amount of antibody-forming cells per spleen (45.5 μg/mouse): 85.9±8.3 × 10^3
Effect on relative amount of AFC (per 10^6 spleen cells) (45.5 μg/mouse): −15.3 p > 0.05%
Effect on total AFC amount (per spleen) (45.5 μg/mouse): −15.0 p > 0.05%
Effect on hemagglutinin titers (45.5 μg/mouse): 0%
Spleen index (45.5 μg/mouse): 6.2 ± 0.2 10^−3
Amount of antibody-forming cells per 10^6 spleen cells (91 μg/mouse): 896.8±111.8 cells per 10^6 spleen cells
Amount of antibody-forming cells per spleen (91 μg/mouse): 111.2±11.8 × 10^3
Effect on relative amount of AFC (per 10^6 spleen cells) (91 μg/mouse): +12.2 p > 0.05%
Effect on total AFC amount (per spleen) (91 μg/mouse): +10.0 p > 0.05%
Effect on hemagglutinin titers (91 μg/mouse): −3.6 p > 0.05%
Spleen index (91 μg/mouse): 6.9 ± 0.5 10^−3
immunostimulating action (136.5 μg/mouse): marked immunostimulating action
Amount of antibody-forming cells per 10^6 spleen cells (136.5 μg/mouse): 1336.5±59.0 cells per 10^6 spleen cells
Amount of antibody-forming cells per spleen (136.5 μg/mouse): 182.5±7.8 × 10^3
Amount of hemagglutinins (136.5 μg/mouse): 9.3±0.2 Log2 T
Spleen index (136.5 μg/mouse): 7.5 ± 0.4 10^−3
Immunogenic activity: no immunogenic activity

CC/C=C\C/C=C\C/C=C\C/C=C\C/C=C\C/C=C\CCC(=O)N[C@@H](Cc1ccc(OP(=O)(O)O)cc1)C(=O)O [Compound 12, N-(cis-4,7,10,13,16,19-docosahexaenoyl)-O-phospho-L-tyrosine]
Amount of antibody-forming cells per 10^6 spleen cells (45.5 μg/mouse): 263.8±23.6 cells per 10^6 spleen cells
Amount of antibody-forming cells per spleen (45.5 μg/mouse): 31.8±2.8 × 10^3
Effect on relative amount of AFC (per 10^6 spleen cells) (45.5 μg/mouse): −9.4 p >0.05%
Effect on total AFC amount (per spleen) (45.5 μg/mouse): −9.1 p >0.05%
Effect on hemagglutinin titers (45.5 μg/mouse): +2.8 p >0.05%
Spleen index (45.5 μg/mouse): 6.3 ± 0.3 10^−3
Amount of antibody-forming cells per 10^6 spleen cells (91 μg/mouse): 307.8±30.9 cells per 10^6 spleen cells
Amount of antibody-forming cells per spleen (91 μg/mouse): 40.2±2.7 × 10^3
Effect on relative amount of AFC (per 10^6 spleen cells) (91 μg/mouse): +5.7 p > 0.05%
Effect on total AFC amount (per spleen) (91 μg/mouse): +14.9 p > 0.05%
Effect on hemagglutinin titers (91 μg/mouse): +2.8 p > 0.05%
Spleen index (91 μg/mouse): 5.9 ± 0.3 10^−3
immunostimulating action (136.5 μg/mouse): high immunostimulating action
Amount of antibody-forming cells per 10^6 spleen cells (136.5 μg/mouse): 682.6±33.3 cells per 10^6 spleen cells
Amount of antibody-forming cells per spleen (136.5 μg/mouse): 69.6±6.0 × 10^3
Effect on hemagglutinin titers (136.5 μg/mouse): +7.7 p > 0.05%
Spleen index (136.5 μg/mouse): 6.3 ± 0.4 10^−3
Immunogenic activity: no immunogenic activity

CC/C=C\C/C=C\C/C=C\C/C=C\C/C=C\CCCC(=O)NCCOP(=O)(O)O [Compound 13, N-(cis-5,8,11,14,17-eicosapentaenoyl)-O-phospho-2-aminoethanol]
Amount of antibody-forming cells per 10^6 spleen cells (45.5 μg/mouse): 608.2±61.3 cells per 10^6 spleen cells
Amount of antibody-forming cells per spleen (45.5 μg/mouse): 48.2±6.5 × 10^3
Effect on relative amount of AFC (per 10^6 spleen cells) (45.5 μg/mouse): −3.2 p > 0.05%
Effect on total AFC amount (per spleen) (45.5 μg/mouse): +5.0 p > 0.05%
Effect on hemagglutinin titers (45.5 μg/mouse): +7,8 p > 0.05%
Spleen index (45.5 μg/mouse): 5.4 ± 0.6 10^−3
Amount of antibody-forming cells per 10^6 spleen cells (91 μg/mouse): 525.0±97.2 cells per 10^6 spleen cells
Amount of antibody-forming cells per spleen (91 μg/mouse): 49.4±6.2 × 10^3
Effect on relative amount of AFC (per 10^6 spleen cells) (91 μg/mouse): −16.5 p > 0.05%
Effect on total AFC amount (per spleen) (91 μg/mouse): +7.6 p > 0.65%
Effect on hemagglutinin titers (91 μg/mouse): +5,6 p > 0.05%
Spleen index (91 μg/mouse): 5.7 ± 0.8 10^−3
immunostimulating action (136.5 μg/mouse): high immunostimulating action; also recorded: marked immunostimulating action
Amount of antibody-forming cells per 10^6 spleen cells (136.5 μg/mouse): 885.9±65.8 cells per 10^6 spleen cells
Amount of antibody-forming cells per spleen (136.5 μg/mouse): 68.2±6.9 × 10^3
Effect on hemagglutinin titers (136.5 μg/mouse): +14,4 p > 0.05%
Spleen index (136.5 μg/mouse): 5.3 ± 0.4 10^−3
Immunogenic activity: no immunogenic activity

CC/C=C\C/C=C\C/C=C\CCCCCCCC(=O)NCCOP(=O)(O)O [Compound 17, N-(cis-9,12,15-octadecatrienoyl)-O-phospho-2-aminoethanol]
Amount of antibody-forming cells per 10^6 spleen cells (45.5 μg/mouse): 457.3±40.7 cells per 10^6 spleen cells
Amount of antibody-forming cells per spleen (45.5 μg/mouse): 51.1±4.4 × 10^3
Effect on relative amount of AFC (per 10^6 spleen cells) (45.5 μg/mouse): −3.0 p > 0.05%
Effect on total AFC amount (per spleen) (45.5 μg/mouse): −7.4 p > 0.05%
Amount of hemagglutinins (45.5 μg/mouse): 7.6 ± 0.2 Log2 T
Spleen index (45.5 μg/mouse): 5.8 ± 10^−3
Amount of antibody-forming cells per 10^6 spleen cells (91 μg/mouse): 523.8±45.3 cells per 10^6 spleen cells
Amount of antibody-forming cells per spleen (91 μg/mouse): 63.5±5.1 × 10^3
Effect on relative amount of AFC (per 10^6 spleen cells) (91 μg/mouse): +11.1 p > 0.05%
Effect on total AFC amount (per spleen) (91 μg/mouse): +15.0 p > 0.05%
Amount of hemagglutinins (91 μg/mouse): 7.8 ± 0.3 Log2 T
Effect on hemagglutinin titers (91 μg/mouse): +2.6 p > 0.05%
Spleen index (91 μg/mouse): 5.7 ± 10^−3
immunostimulating action (136.5 μg/mouse): marked immunostimulating action
Amount of antibody-forming cells per 10^6 spleen cells (136.5 μg/mouse): 619.6±38.9 cells per 10^6 spleen cells
Amount of antibody-forming cells per spleen (136.5 μg/mouse): 71.6±4.7 × 10^3
Amount of hemagglutinins (136.5 μg/mouse): 7.8 ± 0.4 Log2 T
Effect on hemagglutinin titers (136.5 μg/mouse): +2.6 p > 0.05%
Spleen index (136.5 μg/mouse): 5.9 ± 10^−3
Immunogenic activity: no immunogenic activity

CC/C=C\C/C=C\C/C=C\CCCCCCCC(=O)N[C@H](C(=O)O)[C@@H](C)OP(=O)(O)O [Compound 19, N-(cis-9,12,15-octadecatrienoyl)-O-phospho-L-threonine]
Amount of antibody-forming cells per 10^6 spleen cells (45.5 μg/mouse): 454.7±57.9 cells per 10^6 spleen cells
Amount of antibody-forming cells per spleen (45.5 μg/mouse): 48.8±6.4 × 10^3
Effect on relative amount of AFC (per 10^6 spleen cells) (45.5 μg/mouse): +4.3 p > 0.05%
Effect on total AFC amount (per spleen) (45.5 μg/mouse): +5.4 p > 0.05%
Effect on hemagglutinin titers (45.5 μg/mouse): +1,3 p > 005%
Spleen index (45.5 μg/mouse): 6.2 ± 10^−3
Amount of antibody-forming cells per 10^6 spleen cells (91 μg/mouse): 473.2±44.5 cells per 10^6 spleen cells
Amount of antibody-forming cells per spleen (91 μg/mouse): 51.2±6.1 × 10^3
Effect on relative amount of AFC (per 10^6 spleen cells) (91 μg/mouse): +8.6 p > 0.05%
Effect on total AFC amount (per spleen) (91 μg/mouse): +10.6 p > 0.05%
Effect on hemagglutinin titers (91 μg/mouse): +3.8 p > 0.05%
Spleen index (91 μg/mouse): 6.4 ± 10^−3
immunostimulating action (136.5 μg/mouse): marked immunostimulating action
Amount of antibody-forming cells per 10^6 spleen cells (136.5 μg/mouse): 612.5±47.3 cells per 10^6 spleen cells
Amount of antibody-forming cells per spleen (136.5 μg/mouse): 64.7±4.9 × 10^3
Effect on hemagglutinin titers (136.5 μg/mouse): +6.3 p > 0.05%
Spleen index (136.5 μg/mouse): 6.5 ± 10^−3
Immunogenic activity: no immunogenic activity

From patent US6403554B2, “Polyunsaturated fatty acid derivatives and their use” (Ardenia Investments Ltd., priority 1998, dated 2002)
